# Measurements reported in patent US6362369B1, “Phthalic acid diamide derivatives fluorine-containing aniline compounds as starting material, agricultural and horticultural insecticides, and a method for application of the insecticides” (Nihon Nohyaku Co., Ltd., priority 1997, dated 2002).
# What was measured:
# Type in all cases: in vivo
# [1] = test system: rice leafroller (Cnaphalocrocis medinalis); assay: Insecticidal effect on rice leafroller (Test Example 3); conditions: 500 ppm, 25° C., humidity 70%; for Insecticidal effect, Test Example 3: rice lamina immersed; for Insecticidal effect, Test Example 3 / Insecticidal effect on rice leafroller (Test Example 3), judged grade: four days after inoculation; for Insecticidal effect (Test Example 3), judged from mortality / Insecticidal effect on rice leafroller (Test Example 3), judged grade: rice lamina dip; for Insecticidal effect (Test Example 3), judged from mortality: 4 days after inoculation; for Insecticidal effect on rice leafroller (Test Example 3), judged grade: third-instar larvae
# Summary of the method: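 Groups of 10 third-instar larvae, in triplicate, are placed on air-dried lamina resting on wet filter paper. Incubation runs four days at 25° C with 70% humidity before survivors and dead are tallied.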
# [2] = test system: diamondback moth (Plutella xylostella); assay: Insecticidal effect on diamondback moth (Test Example 1); conditions: for Insecticidal effect, Test Example 1 / Insecticidal effect (Test Example 1), judged from mortality: diamondback moth; for Insecticidal effect (Test Example 1), judged from mortality: judged by the criterion of Test Example 1; for Insecticidal effect on diamondback moth (Test Example 1), judged grade: mortality judged according to the criterion shown in Test Example 1
# Summary of the method: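 Eggs laid by adult moths on Chinese cabbage seedlings, which were immersed in test solution, air-dried and kept at 25 °C. Hatched insects counted 6 days after immersion and mortality calculated, with effect graded by criterion; triplicate groups of 10 insects.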
# [3] = test system: common cutworm (Spodoptera Litura); assay: Insecticidal effect on common cutworm (Test Example 2); conditions: 500 ppm, 25° C.; for Insecticidal effect, Test Example 2: cabbage leaf immersed; for Insecticidal effect, Test Example 2 / Insecticidal effect on common cutworm (Test Example 2), judged grade: eight days after inoculation; for Insecticidal effect (Test Example 2), judged from mortality / Insecticidal effect on common cutworm (Test Example 2), judged grade: cabbage leaf dip; for Insecticidal effect (Test Example 2), judged from mortality: 8 days after inoculation; for Insecticidal effect on common cutworm (Test Example 2), judged grade: second-instar larvae
# Summary of the method: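 Mortality was scored 8 days post-inoculation, using three groups of 10 second-instar larvae kept at 25 °C in closed 9 cm dishes on air-dried treated material. The insecticidal effect was graded from calculated mortality by a set criterion.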
# [4] = third-instar larvae of rice leafroller
# [5] = judged by the mortality criterion of Test Example 1
# [6] = second-instar larvae of common cutworm
# [7] = rice leafroller third-instar larvae
# [8] = mortality judged by criterion of Test Example 1
# [9] = common cutworm second-instar larvae
smiles,measurement,setting,value
Cc1cc(Oc2ccc(C(F)(F)F)cn2)ccc1NC(=O)c1ccccc1C(=O)NC(C)C [compound 78],"Insecticidal effect, Test Example 3",[1]; [4],A (100)
same,"Insecticidal effect, Test Example 1",[2]; [5],A (100)
same,"Insecticidal effect, Test Example 2",[3]; [6],A (100)
Cc1cc(C(F)(F)F)ccc1NC(=O)c1cccc(I)c1C(=O)NC(C)(C)C [compound 1141],"Insecticidal effect, Test Example 3",[1]; [7],A (100)
same,"Insecticidal effect, Test Example 1",[2]; [8],A (100)
same,"Insecticidal effect, Test Example 2",[3]; [9],A (100)
Cc1cc(C(F)(F)C(F)(F)F)ccc1NC(=O)c1cccc(Cl)c1C(=O)NC(C)(C)C(Br)CBr (racemic) [compound 1603],"Insecticidal effect (Test Example 3), judged from mortality",[1]; [4],A (100)
same,"Insecticidal effect (Test Example 1), judged from mortality",[2],A (100)
same,"Insecticidal effect (Test Example 2), judged from mortality",[3]; [6],A (100)
Cc1cc(C(F)(F)C(F)(F)C(F)(F)F)ccc1NC(=O)c1cccc([N+](=O)[O-])c1C(=O)NC(C)C [compound 684],"Insecticidal effect on rice leafroller (Test Example 3), judged grade",[1],A (100)
same,"Insecticidal effect on diamondback moth (Test Example 1), judged grade",[2],A (100)
same,"Insecticidal effect on common cutworm (Test Example 2), judged grade",[3],A (100)
CC(C)NC(=O)c1c(I)cccc1C(=O)Nc1ccc(C(F)(F)C(F)(F)F)cc1Cl [compound 1386],"Insecticidal effect, Test Example 3",[1]; [7],A (100)
same,"Insecticidal effect, Test Example 1",[2]; [8],A (100)
same,"Insecticidal effect, Test Example 2",[3]; [9],A (100)
CCc1cc(C(F)(F)C(F)(F)F)ccc1NC(=O)c1cccc(Cl)c1C(=O)NC(C)C [compound 1495],"Insecticidal effect (Test Example 3), judged from mortality",[1]; [4],A (100)
same,"Insecticidal effect (Test Example 1), judged from mortality",[2],A (100)
same,"Insecticidal effect (Test Example 2), judged from mortality",[3]; [6],A (100)
CCN(CC)C(=O)c1c(I)cccc1C(=O)Nc1ccc(C(F)(F)C(F)(F)F)cc1C [compound 1035],"Insecticidal effect, Test Example 3",[1]; [7],A (100)
same,"Insecticidal effect, Test Example 1",[2]; [8],A (100)
same,"Insecticidal effect, Test Example 2",[3]; [9],A (100)
CC(C)(C)NC(=O)c1c(I)cccc1C(=O)Nc1ccc(C(F)(F)F)cc1 [compound 939],"Insecticidal effect, Test Example 3",[1]; [7],A (100)
same,"Insecticidal effect, Test Example 1",[2]; [8],A (100)
same,"Insecticidal effect, Test Example 2",[3]; [9],A (100)
CC(C)NC(=O)c1c(I)cccc1C(=O)Nc1ccc(C(F)(F)C(F)(F)C(F)(F)F)cc1 [compound 350],"Insecticidal effect, Test Example 3",[1]; [4],A (100)
same,"Insecticidal effect, Test Example 1",[2]; [5],A (100)
same,"Insecticidal effect, Test Example 2",[3]; [6],A (100)
Cc1cc(C(F)(F)C(F)(F)F)ccc1NC(=O)c1cccc(I)c1C(=O)N(C)C(C)C [compound 1042],"Insecticidal effect, Test Example 3",[1]; [7],A (100)
same,"Insecticidal effect, Test Example 1",[2]; [8],A (100)
same,"Insecticidal effect, Test Example 2",[3]; [9],A (100)
Cc1cc(C(F)(C(F)(F)F)C(F)(F)F)ccc1NC(=O)c1ccc(F)c(Cl)c1C(=O)NC(C)(C)C [compound 1263],"Insecticidal effect, Test Example 3",[1]; [7],A (100)
same,"Insecticidal effect, Test Example 1",[2]; [8],A (100)
same,"Insecticidal effect, Test Example 2",[3]; [9],A (100)
CCC(C)NC(=O)c1c(I)cccc1C(=O)Nc1ccc(C(F)(F)C(F)(F)F)cc1C (stereo not drawn) [compound 1007],"Insecticidal effect, Test Example 3",[1]; [7],A (100)
same,"Insecticidal effect, Test Example 1",[2]; [8],A (100)
same,"Insecticidal effect, Test Example 2",[3]; [9],A (100)
CCc1cc(OC(F)(F)F)ccc1NC(=O)c1cccc(I)c1C(=O)N(CC)CC [compound 1212],"Insecticidal effect, Test Example 3",[1]; [7],A (100)
same,"Insecticidal effect, Test Example 1",[2]; [8],A (100)
same,"Insecticidal effect, Test Example 2",[3]; [9],A (100)
CCCN(CC)C(=O)c1c(I)cccc1C(=O)Nc1ccc(OC(F)(F)F)cc1C [compound 1574],"Insecticidal effect (Test Example 3), judged from mortality",[1]; [4],A (100)
same,"Insecticidal effect (Test Example 1), judged from mortality",[2],A (100)
same,"Insecticidal effect (Test Example 2), judged from mortality",[3]; [6],A (100)
CCN(CC)C(=O)c1cccc([N+](=O)[O-])c1C(=O)Nc1ccc(C(F)(F)C(F)(F)F)cc1C [compound 1551],"Insecticidal effect (Test Example 3), judged from mortality",[1]; [4],A (100)
same,"Insecticidal effect (Test Example 1), judged from mortality",[2],A (100)
same,"Insecticidal effect (Test Example 2), judged from mortality",[3]; [6],D (79-50)
CCCNC(=O)c1c(I)cccc1C(=O)Nc1ccc(C(F)(F)C(F)(F)C(F)(F)F)cc1F [compound 1524],"Insecticidal effect (Test Example 3), judged from mortality",[1]; [4],A (100)
same,"Insecticidal effect (Test Example 1), judged from mortality",[2],A (100)
same,"Insecticidal effect (Test Example 2), judged from mortality",[3]; [6],A (100)
CC(C)NC(=O)c1c(Cl)cccc1C(=O)Nc1ccc(C(F)(F)C(F)(F)F)cc1Cl [compound 1383],"Insecticidal effect, Test Example 3",[1]; [7],A (100)
same,"Insecticidal effect, Test Example 1",[2]; [8],A (100)
same,"Insecticidal effect, Test Example 2",[3]; [9],A (100)
CCCNC(=O)c1cccc(Cl)c1C(=O)Nc1cc(-c2ccccc2)ccc1OC [compound 1297],"Insecticidal effect, Test Example 3",[1]; [7],A (100)
same,"Insecticidal effect, Test Example 1",[2]; [8],A (100)
same,"Insecticidal effect, Test Example 2",[3]; [9],A (100)
CCN(CC)C(=O)c1cc(Cl)ccc1C(=O)Nc1ccc(C(F)(F)C(F)(F)F)cc1C [compound 1280],"Insecticidal effect, Test Example 3",[1]; [7],A (100)
same,"Insecticidal effect, Test Example 1",[2]; [8],A (100)
same,"Insecticidal effect, Test Example 2",[3]; [9],A (100)
COc1ccc(NC(=O)c2c(Cl)cccc2C(=O)NC(C)C)c(C)c1C [compound 219],"Insecticidal effect, Test Example 3",[1]; [4],A (100)
same,"Insecticidal effect, Test Example 1",[2]; [5],A (100)
same,"Insecticidal effect, Test Example 2",[3]; [6],D (79-50)
CC(C)NC(=O)c1cccc(I)c1C(=O)Nc1ccc(OC(F)F)c(C(F)(F)F)c1 [compound 471],"Insecticidal effect on rice leafroller (Test Example 3), judged grade",[1],A (100)
same,"Insecticidal effect on diamondback moth (Test Example 1), judged grade",[2],A (100)
same,"Insecticidal effect on common cutworm (Test Example 2), judged grade",[3],A (100)
CC(C)NC(=O)c1c(Br)cccc1C(=O)Nc1ccc(OC(F)(F)F)cc1Cl [compound 286],"Insecticidal effect, Test Example 3",[1]; [4],A (100)
same,"Insecticidal effect, Test Example 1",[2]; [5],A (100)
same,"Insecticidal effect, Test Example 2",[3]; [6],A (100)
Cc1c(NC(=O)c2cccc([N+](=O)[O-])c2C(=O)NC(C)C)cccc1C(F)(F)F [compound 681],"Insecticidal effect on rice leafroller (Test Example 3), judged grade",[1],A (100)
same,"Insecticidal effect on diamondback moth (Test Example 1), judged grade",[2],A (100)
same,"Insecticidal effect on common cutworm (Test Example 2), judged grade",[3],A (100)
Cc1cc(C(F)(F)C(F)(F)F)ccc1NC(=O)c1c(Cl)cccc1C(=O)N(C)Cc1ccccc1 [compound 1436],"Insecticidal effect, Test Example 3",[1]; [7],A (100)
same,"Insecticidal effect, Test Example 1",[2]; [8],A (100)
same,"Insecticidal effect, Test Example 2",[3]; [9],A (100)
Cc1cc(C(F)(F)C(F)(F)F)ccc1NC(=O)c1cccc(C)c1C(=O)NC(C)(C)C [compound 955],"Insecticidal effect, Test Example 3",[1]; [7],A (100)
same,"Insecticidal effect, Test Example 1",[2]; [8],A (100)
same,"Insecticidal effect, Test Example 2",[3]; [9],A (100)
Cc1cc(C(F)(F)C(F)(F)F)ccc1NC(=O)c1cccc(Cl)c1C(=O)NCCCO [compound 1399],"Insecticidal effect, Test Example 3",[1]; [7],A (100)
same,"Insecticidal effect, Test Example 1",[2]; [8],A (100)
same,"Insecticidal effect, Test Example 2",[3]; [9],A (100)
CC(C)NC(=O)c1c(Cl)cccc1C(=O)Nc1ccc2c(c1)OC(F)(F)C(F)(F)O2 [compound 977],"Insecticidal effect, Test Example 3",[1]; [7],A (100)
same,"Insecticidal effect, Test Example 1",[2]; [8],A (100)
same,"Insecticidal effect, Test Example 2",[3]; [9],A (100)
CC(C)NC(=O)c1c(C(=O)Nc2ccc(C(F)(F)C(F)(F)C(F)(F)F)cc2)cccc1[N+](=O)[O-] [compound 609],"Insecticidal effect on rice leafroller (Test Example 3), judged grade",[1],A (100)
same,"Insecticidal effect on diamondback moth (Test Example 1), judged grade",[2],A (100)
same,"Insecticidal effect on common cutworm (Test Example 2), judged grade",[3],B (99-90)
CCCC(C)NC(=O)c1c(I)cccc1C(=O)Nc1ccc(C(F)(F)C(F)(F)F)cc1C (stereo not drawn) [compound 1009],"Insecticidal effect, Test Example 3",[1]; [7],A (100)
same,"Insecticidal effect, Test Example 1",[2]; [8],A (100)
same,"Insecticidal effect, Test Example 2",[3]; [9],A (100)
Cc1cc(OC(F)(F)Br)ccc1NC(=O)c1cccc(I)c1C(=O)NC(C)C [compound 389],"Insecticidal effect, Test Example 3",[1]; [4],A (100)
same,"Insecticidal effect, Test Example 1",[2]; [5],A (100)
same,"Insecticidal effect, Test Example 2",[3]; [6],A (100)
CC(C)(C)NC(=O)c1c(I)cccc1C(=O)Nc1ccc2c(c1)OC(F)C(F)(F)O2 (stereo not drawn) [compound 1150],"Insecticidal effect, Test Example 3",[1]; [7],A (100)
same,"Insecticidal effect, Test Example 1",[2]; [8],A (100)
same,"Insecticidal effect, Test Example 2",[3]; [9],A (100)
Cc1cc(C(F)(F)F)ccc1NC(=O)c1c(I)cccc1C(=O)NC(C)C [compound 436],"Insecticidal effect, Test Example 3",[1]; [4],A (100)
same,"Insecticidal effect, Test Example 1",[2]; [5],A (100)
same,"Insecticidal effect, Test Example 2",[3]; [6],B (99-90)
Cc1cc(Br)ccc1NC(=O)c1c(I)cccc1C(=O)NC(C)C [compound 430],"Insecticidal effect, Test Example 3",[1]; [4],D (79-50)
same,"Insecticidal effect, Test Example 1",[2]; [5],A (100)
same,"Insecticidal effect, Test Example 2",[3]; [6],D (79-50)
Cc1ccc(F)cc1NC(=O)c1cccc(F)c1C(=O)NC(C)C [compound 493],"Insecticidal effect on rice leafroller (Test Example 3), judged grade",[1],A (100)
same,"Insecticidal effect on diamondback moth (Test Example 1), judged grade",[2],A (100)
same,"Insecticidal effect on common cutworm (Test Example 2), judged grade",[3],A (100)
CC(C)NC(=O)c1c(F)cccc1C(=O)Nc1ccc(SC(F)(F)C(F)(F)Br)cc1 [compound 480],"Insecticidal effect on rice leafroller (Test Example 3), judged grade",[1],A (100)
same,"Insecticidal effect on diamondback moth (Test Example 1), judged grade",[2],A (100)
same,"Insecticidal effect on common cutworm (Test Example 2), judged grade",[3],B (99-90)
CC(C)(C)NC(=O)c1c(I)cccc1C(=O)Nc1ccc(C(F)(F)C(F)(F)F)cc1Br [compound 1562],"Insecticidal effect (Test Example 3), judged from mortality",[1]; [4],A (100)
same,"Insecticidal effect (Test Example 1), judged from mortality",[2],A (100)
same,"Insecticidal effect (Test Example 2), judged from mortality",[3]; [6],A (100)
